Reference: ChEMBL document CHEMBL5241106, “Discovery of a Dual Tubulin and Poly(ADP-Ribose) Polymerase-1 Inhibitor by Structure-Based Pharmacophore Modeling, Virtual Screening, Molecular Docking, and Biological Evaluation” (J Med Chem, 2021)
Activity calls are given as the source filed them. The calls are words filed in the database; no cut-off is given here.

What was measured:
Tubulin (Homo sapiens) = Tubulin (Homo sapiens) (UniProt P68371+Q9H4B7+P0DPH7+P68366+Q13509+Q71U36+P04350+Q3ZCM7+P07437+P68363+Q9BQE3+Q6PEY2+Q13885+Q9BVA1+Q9BUF5); experiment: Inhibition of tubulin polymerization (unknown origin) at 10 uM by turbidimetric analysis; type: protein-complex assay
Tubulin = experiment: Inhibition of tubulin polymerization (unknown origin) by turbidimetric analysis; type: protein-complex assay, Homo sapiens
MDA-MB-231 [1] = experiment: Cytotoxicity against human MDA-MB-231 cells assessed as inhibition of cell growth incubated for 72 hrs by MTT assay; type: functional, cell-based
MDA-MB-231 [2] = experiment: Induction of apoptosis in human MDA-MB-231 cells assessed as necrotic cells at 2.5 uM incubated for 48 hrs by Annexin V-FITC/PI staining based flow cytometry (reference value: 1.86%); type: functional
MDA-MB-231 [3] = experiment: Induction of apoptosis in human MDA-MB-231 cells incubated for 24 hrs by DAPI staining based confocal laser microscopy; type: functional, cell-based
MDA-MB-231 [4] = experiment: Induction of apoptosis in human MDA-MB-231 cells assessed as early apoptotic cells at 2.5 uM incubated for 48 hrs by Annexin V-FITC/PI staining based flow cytometry (reference value: 1.71%); type: functional
MDA-MB-231 [5] = experiment: Induction of apoptosis in human MDA-MB-231 cells assessed as viable cells at 2.5 uM incubated for 48 hrs by Annexin V-FITC/PI staining based flow cytometry (reference value: 91.4%); type: functional; settings: read-out: Activity
[6] = biological target: Poly [ADP-ribose] polymerase 1 (Homo sapiens, UniProt P09874); experiment: Inhibition of PARP1 (unknown origin) using [3H]NAD+ as substrate incubated for 15 mins by scintillation counting analysis
Chain of Poly [ADP-ribose] polymerase 1 (P09874 whole entry): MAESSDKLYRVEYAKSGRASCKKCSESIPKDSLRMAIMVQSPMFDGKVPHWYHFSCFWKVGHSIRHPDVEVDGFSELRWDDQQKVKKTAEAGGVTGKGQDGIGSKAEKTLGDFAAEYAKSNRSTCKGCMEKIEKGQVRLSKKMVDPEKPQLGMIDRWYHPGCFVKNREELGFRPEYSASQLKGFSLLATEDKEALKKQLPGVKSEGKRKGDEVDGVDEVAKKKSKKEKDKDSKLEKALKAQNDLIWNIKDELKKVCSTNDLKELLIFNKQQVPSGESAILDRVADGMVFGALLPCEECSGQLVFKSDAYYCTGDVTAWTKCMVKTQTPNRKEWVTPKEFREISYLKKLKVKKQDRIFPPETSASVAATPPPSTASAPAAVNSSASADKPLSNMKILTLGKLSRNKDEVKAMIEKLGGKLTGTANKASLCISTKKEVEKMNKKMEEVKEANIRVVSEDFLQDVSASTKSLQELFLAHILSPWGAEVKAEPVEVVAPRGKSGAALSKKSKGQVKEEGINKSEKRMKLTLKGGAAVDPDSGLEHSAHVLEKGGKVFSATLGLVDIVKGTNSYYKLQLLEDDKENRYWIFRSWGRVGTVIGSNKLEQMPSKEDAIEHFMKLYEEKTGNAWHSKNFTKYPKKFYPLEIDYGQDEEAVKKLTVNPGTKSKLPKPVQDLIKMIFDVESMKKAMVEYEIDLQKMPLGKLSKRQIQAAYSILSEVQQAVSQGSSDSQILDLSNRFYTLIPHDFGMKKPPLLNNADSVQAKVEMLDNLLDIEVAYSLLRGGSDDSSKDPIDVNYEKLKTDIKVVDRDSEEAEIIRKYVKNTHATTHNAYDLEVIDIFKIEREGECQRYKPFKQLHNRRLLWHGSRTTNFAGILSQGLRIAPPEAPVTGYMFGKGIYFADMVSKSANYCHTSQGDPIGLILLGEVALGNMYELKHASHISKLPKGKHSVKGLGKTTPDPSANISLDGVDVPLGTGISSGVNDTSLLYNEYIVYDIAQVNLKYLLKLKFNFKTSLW

MDA-MB-231 [7] = experiment: Induction of apoptosis in human MDA-MB-231 cells assessed as late apoptotic cells at 2.5 uM incubated for 48 hrs by Annexin V-FITC/PI staining based flow cytometry (reference value: 5.06%); type: functional
[8] = Cytotoxicity against human MCF-10A cells assessed as inhibition of cell growth incubated for 72 hrs by MTT assay; type: toxicity, cell-based

| SMILES | inhibition (Tubulin (Homo sapiens)) | also measured |
| --- | --- | --- |
| O=c1[nH]c(/C=C/c2cc(Br)ccc2O)nc2ccccc12 | 63% |  |
| O=c1[nH]c(/C=C/c2cccc([N+](=O)[O-])c2)nc2ccccc12 | 65% |  |
| Cc1cccc(-c2nc(O)c3ccccc3n2)c1 | 43% |  |
| O=c1[nH]c(/C=C/c2ccc([N+](=O)[O-])cc2)nc2ccccc12 | 61% |  |
| O=c1[nH]c(/C=C/c2ccccc2)nc2ccccc12 | 82% |  |
| COc1ccc(-c2nc3ccccc3c(=O)[nH]2)cc1C | 49% |  |
| CN(C)C(=O)Cc1ccc2[nH]c(=O)c3ccccc3c2c1 |  | IC50 (Tubulin): Not Active |
| Cc1ccc(-c2nc3ccccc3c(=O)[nH]2)cc1 | 45% |  |
| COc1cc(/C=C/c2nc(O)c3ccccc3n2)ccc1O | 69% |  |
| COc1ccc(-c2nc(O)c3ccccc3n2)cc1 | 47% |  |
| COc1cc2c(c(OC)c1OC)-c1ccc(OC)c(=O)cc1[C@@H](NC(C)=O)CC2 [COLCHICINE] |  | Activity (MDA-MB-231 [1]): Active; Activity (MDA-MB-231 [2]): 2.04%; Activity (MDA-MB-231 [3]): Active; Activity (MDA-MB-231 [4]): 1.89%; viability at 2.5 µM (MDA-MB-231 [5]): 88%; IC50 [6]: Not Active; Activity (MDA-MB-231 [7]): 8.1%; IC50 at 72 h [8]: 6 nM |
